T/C data for 25 compounds are collected here from PubChem BioAssay AID214 (DTP/NCI, 2004).

Values joined by “and” are separate entries in the source; they are usually repeats but may differ in a detail not shown here. Equal values may be shown once. Records with an inconclusive call do not appear.

The subject of the test is B6C3F1 mice, colon carcinoma 38 s.c., T/C. Description: NCI In Vivo Anticancer Drug Screen. Data for tumor model Colon Carcinoma 38 (subcutaneous) in B6C3F1 mice. The note with it: endpoint: median tumor weight (est.), higher = larger tumour. As to the method: The antitumor activity of compounds was measured in mice bearing transplantable tumors. Survival or tumor size were measured and the results are expressed as the measurement made in the treated group (T) divided by the measurement made in the vehicle treated control group (C). The tumor model used in this assay is Colon Carcinoma 38 (subcutaneous) in B6C3F1 mice

The mark [1] stands for this setting: dose: 25.0 mg/kg/injection, schedule: Q07DX002 (ip), vehicle: saline.
Where [2] appears, read: dose: 50.0 mg/kg/injection, schedule: Q07DX002 (ip), vehicle: saline.
[3] abbreviates: dose: 200.0 mg/kg/injection, schedule: Q07DX002 (ip), vehicle: saline with Tween-80.
[4] abbreviates: dose: 400.0 mg/kg/injection, schedule: Q07DX002 (ip), vehicle: saline with Tween-80.
Where [5] appears, read: dose: 800.0 mg/kg/injection, schedule: Q07DX002 (ip), vehicle: saline with Tween-80.
Setting [6] is: dose: 50.0 mg/kg/injection, schedule: Q07DX002 (ip), vehicle: saline with Tween-80.
[7] abbreviates: dose: 100.0 mg/kg/injection, schedule: Q07DX002 (ip), vehicle: saline with Tween-80.
Where [8] appears, read: dose: 12.5 mg/kg/injection, schedule: Q07DX002 (ip), vehicle: saline.
[9] abbreviates: dose: 12.5 mg/kg/injection, schedule: Q07DX002 (ip), vehicle: saline with Tween-80.
[10] abbreviates: dose: 25.0 mg/kg/injection, schedule: Q07DX002 (ip), vehicle: saline with Tween-80.
The mark [11] stands for this setting: dose: 100.0 mg/kg/injection, schedule: Q07DX002 (ip), vehicle: saline.
Setting [12] is: dose: 200.0 mg/kg/injection, schedule: Q07DX002 (ip), vehicle: saline.

`CCC/C=C/C=C/C(=O)OC1/C(=C/C(=O)OC)CC2CC(C(C)O)OC(=O)CC(O)CC3CC(OC(C)=O)C(C)(C)C(O)(CC4C/C(=C/C(=O)OC)CC(/C=C/C(C)(C)C1(O)O2)O4)O3` (stereo not given): the T/C is, setting by setting: (dose: 37.5 micrograms/kg/injection, schedule: Q07DX002 (ip), vehicle: saline + alcohol) 191 % of control; (dose: 300.0 micrograms/kg/injection, schedule: Q07DX002 (ip), vehicle: saline + alcohol) 74 % of control.
As to `N[C@@H](Cc1ccc(N(CCCl)CCCl)cc1)C(=O)O`, the T/C reads like this: (dose: 1.2 mg/kg/injection, schedule: Q01DX006 (ip), vehicle: saline) 35 % of control; (dose: 1.8 mg/kg/injection, schedule: Q01DX006 (ip), vehicle: saline) 62 % of control; (dose: 2.7 mg/kg/injection, schedule: Q01DX006 (ip), vehicle: saline) 38 % of control; (dose: 4.0 mg/kg/injection, schedule: Q01DX006 (ip), vehicle: saline) 50 % of control.
`NC(=O)c1ccc[n+](Cc2c(Cl)cccc2Cl)c1`: the T/C was 86 % of control under setting [1] and 94 % of control under setting [2].
With `Oc1cc2ccccc2c(-c2c(O)c(O)cc3ccccc23)c1O`, the T/C is, setting by setting: under setting [3], 70 % of control; under setting [4], 62 % of control; under setting [5], 104 % of control.
With `ClCCCN1CCN(CCCl)CC1`, the T/C is, setting by setting: (dose: 5.0 mg/kg/injection, schedule: Q07DX002 (ip), vehicle: saline) 101 % of control; (dose: 10.0 mg/kg/injection, schedule: Q07DX002 (ip), vehicle: saline) 83 % of control; (dose: 20.0 mg/kg/injection, schedule: Q07DX002 (ip), vehicle: saline) 44 % of control.
`COc1ccc(S(=O)(=O)N=N/C=C2\C=CC=CN2O)cc1OC`: the T/C was 175 % of control under setting [6], 91 % of control under setting [7] and 166 % of control under setting [3].
In the case of `CCCCCc1cc(O)c2c(c1)OC(C)(C)[C@@H]1CCC(C)=C[C@@H]21`, the T/C is 81 % of control (dose: 200.0 mg/kg/injection, schedule: Q07DX002 (ip), vehicle: other) and 98 % of control (dose: 400.0 mg/kg/injection, schedule: Q07DX002 (ip), vehicle: other).
For the compound `O=[N+]([O-])c1ccc(N2CCOCC2)c2c1no[n+]2[O-]`, the T/C under setting [6] was 165 % of control, the T/C under setting [7] was 98 % of control and the T/C under setting [3] is 103 % of control.
`C[n+]1c(-c2cccc(OCCOCCOc3cccc(-c4c5cc(N)ccc5c5ccc(N)cc5[n+]4C)c3)c2)c2cc(N)ccc2c2ccc(N)cc21`: the T/C was 71 % of control (dose: 4.0 mg/kg/injection, schedule: Q07DX002 (ip), vehicle: water); 54 % of control (dose: 8.0 mg/kg/injection, schedule: Q07DX002 (ip), vehicle: water); 85 % of control and 66 % of control (dose: 16.0 mg/kg/injection, schedule: Q07DX002 (ip), vehicle: water); 33 % of control and 52 % of control (dose: 64.0 mg/kg/injection, schedule: Q07DX002 (ip), vehicle: water).
For `Cc1c(N)nc([C@H](CC(N)=O)NC[C@H](N)C(N)=O)nc1C(=O)N[C@H](C(=O)N[C@H](C)[C@@H](O)[C@H](C)C(=O)N[C@H](C(=O)NCCc1nc(-c2nc(C(=O)NCCC[S+](C)C)cs2)cs1)[C@@H](C)O)C(OC1OC(CO)C(O)C(O)C1OC1OC(CO)C(O)C(OC(N)=O)C1O)c1cnc[nH]1` (stereo not given in full), the T/C is 26 % of control (dose: 16.0 mg/kg/injection, schedule: Q07DX002 (ip), vehicle: saline); 14 % of control (dose: 32.0 mg/kg/injection, schedule: Q07DX002 (ip), vehicle: saline); 35 % of control (dose: 64.0 mg/kg/injection, schedule: Q07DX002 (ip), vehicle: saline); 9 % of control (dose: 128.0 mg/kg/injection, schedule: Q07DX002 (ip), vehicle: saline).
On to `O=C1NC(=O)/C(=C/C=C/c2ccccc2)S1`, for which the T/C reads like this: under setting [3], 67 % of control; under setting [4], 86 % of control; under setting [5], 63 % of control.
On to `COc1cc2c(ccc3c4cc(OC)c(OC)cc4c[n+](C)c23)cc1O`, for which the T/C by setting is: (dose: 100.0 mg/kg/injection, schedule: Q07DX002 (ip), vehicle: suspension in saline) 89 % of control; (dose: 200.0 mg/kg/injection, schedule: Q07DX002 (ip), vehicle: suspension in saline) 81 % of control.
As for `O=c1n(CC2CO2)c(=O)n(CC2CO2)n1CC1CO1` (stereo not given), the T/C by setting is: (dose: 6.25 mg/kg/injection, schedule: Q07DX002 (ip), vehicle: saline) 72 % of control; under setting [8], 67 % of control; under setting [1], 87 % of control; under setting [2], 31 % of control.
On to `CN(C)/N=N/c1nc[nH]c1C(N)=O`, for which, where the note is “dose: 90.0 mg/kg/injection, schedule: Q01DX006 (ip), vehicle: carboxymethylcellulose (CMC)”, the T/C is 47 % of control.
Take `C[CH2][Sn]([CH2]C)([CH2]C(=O)OC)[CH2]C(=O)OC`: the T/C reads like this: (dose: 1.56 mg/kg/injection, schedule: Q07DX002 (ip), vehicle: saline with Tween-80) 51 % of control; (dose: 3.12 mg/kg/injection, schedule: Q07DX002 (ip), vehicle: saline with Tween-80) 113 % of control; (dose: 6.25 mg/kg/injection, schedule: Q07DX002 (ip), vehicle: saline with Tween-80) 109 % of control; under setting [9], 65 % of control; under setting [10], 74 % of control.
Regarding `CC1(C)OCC2OC=CC(=O)C2O1` (stereo not given), under setting [3], the T/C is 222 % of control.
In the case of `O=C(O)COc1cccc2c(=O)cc(-c3ccccc3)oc12`, the T/C under setting [11] was 52 % of control and the T/C under setting [12] was 109 % of control.
Consider `O=P1(N(CCCl)CCCl)NCCCO1` (stereo not given), for which the T/C runs as follows: under setting [1], 44 % of control; under setting [2], 52 % of control; under setting [11], 13 % of control; under setting [12], 7 % of control.
Take `O=CC(O)C(O)C(O)C(O)CO` (stereo not given): the T/C was 106 % of control (dose: 75.0 mg/kg/injection, schedule: Q07DX002 (ip), vehicle: saline); 79 % of control (dose: 150.0 mg/kg/injection, schedule: Q07DX002 (ip), vehicle: saline); 66 % of control (dose: 300.0 mg/kg/injection, schedule: Q07DX002 (ip), vehicle: saline); 94 % of control (dose: 600.0 mg/kg/injection, schedule: Q07DX002 (ip), vehicle: saline); 110 % of control (dose: 1200.0 mg/kg/injection, schedule: Q07DX002 (ip), vehicle: saline).
Consider `O=P(O)(NCCCl)NCCCl`, for which the T/C is 52 % of control under setting [8], 100 % of control under setting [1] and 60 % of control under setting [2].
For the compound `COc1ccc2cc1Oc1ccc(cc1)C[C@H]1c3cc(c(OC)cc3CCN1C)Oc1c(OC)c(OC)cc3c1[C@H](C2)N(C)CC3`, the T/C is, setting by setting: (dose: 150.0 mg/kg/injection, schedule: Q07DX002 (ip), vehicle: saline with Tween-80) 102 % of control and 106 % of control; (dose: 300.0 mg/kg/injection, schedule: Q07DX002 (ip), vehicle: saline with Tween-80) 57 % of control; (dose: 600.0 mg/kg/injection, schedule: Q07DX002 (ip), vehicle: saline with Tween-80) 29 % of control.
For the compound `O=C(CCCCCCC(=O)ON1C(=O)CCC1=O)ON1C(=O)CCC1=O`, the T/C runs as follows: under setting [9], 74 % of control; under setting [10], 69 % of control; under setting [3], 108 % of control.
Regarding `O=C(O)C(O)C(O)C1[O][Sb][O]C1C(=O)O` (stereo not given), the T/C was 76 % of control under setting [8], 84 % of control under setting [1], 123 % of control under setting [2] and 107 % of control under setting [11].
For the compound `NC(=O)c1c[se]c(C2OC(CO)C(O)C2O)n1` (stereo not given), the T/C reads like this: under setting [2], 90 % of control; under setting [11], 87 % of control; under setting [12], 84 % of control; (dose: 400.0 mg/kg/injection, schedule: Q07DX002 (ip), vehicle: saline) 92 % of control; (dose: 800.0 mg/kg/injection, schedule: Q07DX002 (ip), vehicle: saline) 56 % of control.
For `O=C1[C@H]2CCC[C@H]2[C@H]2CCC[C@@H]12`, the T/C was 106 % of control and 109 % of control under setting [10]; 95 % of control and 107 % of control under setting [6]; 41 % of control under setting [7]; 100 % of control and 116 % of control under setting [3]; 104 % of control under setting [4].
